Drawing on BindingDB's records for PubMed 3016248 (The Johns Hopkins University, 1986), this text covers Ki for one compound.

The test addresses Glutamate receptor ionotropic, NMDA 1 (Rattus norvegicus, UniProt P35439).

Several values for one entry are separate records, joined by “and”; a condition that tells them apart may be missing. Identical values can stand only once.

As usually defined, the Ki is a measure of affinity in units of concentration, obtained from inhibition or displacement. Take `CC1(C2(C)COC(c3ccccc3)(c3ccccc3)O2)CCCCN1` (stereo unspecified) [CAS_4792-18-1]: the Ki was 2.22 µM and 2.34 µM and > 10 µM and 3.79 µM.
